Columns and labels:
[1] = test system: beet armyworm (Spodoptera exigua); experiment: Insecticidal test on treated lepidopteran diet, beet armyworm; format: in vivo; conditions: 120 h, second-instar larvae on treated diet, 8 wells, dose of 50 mg/cm^2 [sic] (2000 ppm, 50 μL), dead insects counted 5 days after treatment, read-out: AVG LAPHEG 50 (percent control, beet army worm)
Protocol: (§1) The compounds identified in Table 1 were prepared according to the previous methods and were tested against beet armyworm and corn earworm as follows:
(§2) Insecticidal Test for Corn Earworm (Helicoverpa zea) and Beet Armyworm (Spodoptera exigua).
(§3) To prepare test solution, the test compound was formulated at 2000 ppm solution as 4 mg/2 mL of 9 acetone:1 tap water. 50 μL of the 2000 ppm (equivalent to 50 μg/cm^2 dose on diet surface area) test solution was pipetted upon the surface of 1 mL of lepidopteran diet (Southland Multi-Species Lepidopteran Diet) contained in each of eight wells per insect species (one well=1 replication). A second-instar corn earworm and beet armyworm was placed upon the treated diet in each well once the solvent had air-dried. Trays containing the treated diet and larvae were covered and then held in a growth chamber at 25° C., 50-55% RH, and 16 hr light:8 hr dark for 5 days. Observation were conducted 5 days after treatment and infestation. The number of dead insects of 8 per species per treatment was then determined and the results are given in Table 1 as a percent control at a dose of […].
(§4) Keys to the table: Mass spectral data were obtained using liquid chromatography mass spectroscopy (LC-MS). The masses are detected using electrospray ionization (ESI) and reported as Mol Ion (M+H, M−H); AVG LAPHEG 50 refers to activity against beet army worm (Spodoptera exigua) as defined above; AVG HELIZE 50 refers to activity against corn ear worm (Helicoverpa zea) as described above.

[2] = test system: corn earworm (Helicoverpa zea); experiment: Insecticidal test on treated lepidopteran diet, corn earworm; format: in vivo; conditions: 120 h; second-instar larvae on treated diet, 8 wells; dose of 50 mg/cm^2 [sic] (2000 ppm, 50 μL); dead insects counted 5 days after treatment; read-out: AVG HELIZE 50 (percent control, corn ear worm)
Protocol: as §1, §2, §3, §4

Compound	pest or weed control at 2000 µg/mL [1] [%]	pest or weed control at 2000 µg/mL [2] [%]
CCOC(=O)CN(C)c1nc(N/N=C/c2ccc(OC(F)(F)F)cc2)nc(Nc2ccc(OC(F)(F)F)cc2)n1 [Compound 23]	25	0
CCOc1nc(N/N=C/c2ccc(OC(F)(F)F)cc2)nc(Nc2cccc(C(F)(F)F)c2)n1 [Compound 12]	100	100
Fc1ccc(Nc2nc(NCc3ccncc3)nc(N/N=C/c3ccc(OC(F)(F)F)cc3)n2)cc1C(F)(F)F [Compound 64]	100	100
FC(F)(F)COc1nc(N/N=C/c2ccccc2Br)nc(Nc2ccc(OC(F)(F)F)cc2)n1 [Compound 34]	100	100
CCOc1nc(N/N=C/c2ccc(OC(F)(F)F)cc2)nc(Nc2ccc(OC(F)(F)F)cc2)n1 [Compound 8]	25	25
COCCNc1nc(N/N=C/c2ccc(OC(F)(F)F)cc2)nc(Nc2cccc(C(F)(F)F)c2)n1 [Compound 19]	100	75
FC(F)(F)Oc1ccc(Nc2nc(N/N=C/c3ccccc3OC(F)(F)F)nc(N3CCOCC3)n2)cc1 [Compound 45]	38	13
Fc1ccc(Nc2nc(NCc3ccc(Cl)nc3)nc(N/N=C/c3cccc(C(F)(F)F)c3)n2)cc1C(F)(F)F [Compound 74]	100	100

Reference: patent publication US8188273B2, “Insecticidal (1,3,5)-triazinyl phenyl hydrazones” (Dow AgroSciences, LLC., priority 2007, dated 2012)
